Measured values taken from US8114382B2, “Myelin detection using benzofuran derivatives” (General Electric Company, priority 2006, dated 2012).

Legend:
myelin = assay: Staining of cryostatic sections of nervous tissue; assay type: binding, rat; settings: for labeling of brain or nerve tissue versus background autofluorescence: brain and nerve sections
Experimental: 10 μm-thick sections (fresh frozen or formalin-fixed) of rat brain and cross-sections of sciatic, optic, and penile nerves were mounted on microscope slides, washed 3×5 min in phosphate buffered saline (PBS), then drained for 2 min. 1 mM stock solution of Formula I was prepared in 50% ethanol and 50% deionized water. The solution was vortexed and centrifuged at 10,000×g, and the supernatant, containing fully dissolved Formula I was transferred into a fresh tube. The solution was diluted to 25 uM in 50% ethanol. 200 uL of the 25 uM Formula I was pipetted onto the microscope slides. Control sections were treated with 50% ethanol. Parafilm was placed over sections during 10 min incubation at room temperature. Unbound compound was rinsed by serial immersion in 3×1 min washes in 50% ethanol, followed by a 1 min wash in de-ionized, distilled water. For cell body counterstaining, sections were immersed in 100 uL of 500 nM propidium iodide (PI) in PBS and carefully covered with parafilm. The sections were incubated for 5 min at room temperature. The samples were repeatedly rinsed and washed with PBS (3×10 min), followed by de-ionized, distilled water. The sections were covered with 20 uL of AntiFade Gold (Molecular Probes Inc, Carlsbad Calif.) and examined microscopically. Images were collected on a Leica DMRA2 fluorescent microscope equipped with filter cubes for near ultraviolet and visible fluorophores. Fluorescence was visualized using a Leica “A” filter cube while PI was imaged with a Leica “TX2” cube.
Staining of sciatic nerve sections by Formula I was also compared to a commercially available myelin stain (FluoroMyelin, Invitrogen). The tissue sections were […] by incubating in PBS for 5 minutes, followed by permeabilized with PBS containing 0.2% Triton X-100 for 20 minutes. The staining solution was prepared by 300-fold dilution of a stock solution of DAPI and a stock solution of Fluoromyelin green fluorescent myelin. Each section was flooded with 100 uL of the staining solution, covered with a small piece of parafilm and allowed to incubate for 20 min. The parafilm was removed and all sections were washed 3×5 min in PBS and rinsed with de-ionized, distilled water. After drying, the tissue sections were covered with 20 uL of AntiFade Gold (Molecular Probes Inc) and examined microscopically.

[1] = Fluorescence excitation and emission peaks (Spetramax M5); assay type: physicochemical; settings: 10 μM in aqueous solution
Experimental: Fluorescence excitation and emission peaks for Formula I, and benzofuran compounds A and B, (see Table 1) were measured using a Spetramax M5 (Molecular Devices). For Formula I, the excitation max was 380 nm, and the emission max was 470 nm. For compound A, the excitation max was 435 nm and the emission max was 550 nm. For compound B, the excitation max was 435 nm and the emission max was 535 nm. The final concentration of each analog in an aqueous solution was 10 μM. Log P, which is the logarithm of octanol-water partition coefficient, was determined for each analog using commercially available software (Table 1).

[2] = Kinetics and biodistribution of [3H] labeled Formula I (standard uptake values); assay type: in vivo; settings: mice
Experimental: 100 μl of [^3H] labeled Formula I, diluted in saline to 740 kBq/ml, was injected into the tail vein of female mice weighing […]. Mice were killed by CO2 at 2, 5, 15, 30, or 60 min post-injection and organs immediately dissected out. Organs were weighed, transferred to scintillation tubes containing 2 ml Biolute-S (Zinsser Analytic GmbH, Germany), and tubes were shaken overnight at room temperature. Subsequently, 200 μL of glacial acetic acid was added and after 1 h, 10 mL of scintillation fluid was added (Ready Organics, Beckman Coulter). The tubes were shaken vigorously, allowed to rest for 1 h, and radioactivity was measured in scintillation counter (LS 6000LL, Beckman Instruments). Blood, also sampled at each time point, was collected in heparinized tubes. 10 μL of each sample was added to 2 ml Biolute-S. A similar procedure was used for the other organs studied.
Biodistribution of Formula I at different time points following administration was expressed as standard uptake values (SUVs), according to the following formula wherein RA is a measure of radioactivity: […]

[3] = system: myelin of freshly explanted sciatic nerve; assay: Staining of explanted nerves; assay type: binding, rat; settings: 20 min incubation, trans-illuminator ≧350 nm
Experimental: Freshly explanted sciatic nerve was incubated in Formula I then imaged under an ultraviolet transilluminator to visualize myelin. Rats were euthanized and within 30 min, 2 cm-long segments of their sciatic nerve tissue were collected, rinsed with PBS, then washed 3×5 min in 50% ethanol. The nerves were incubated at RT in the dark for 20 min in a solution of Formula I as prepared in Example 1. Control nerves were incubated in 50% ethanol. Nerves were rinsed 3×3 min in 50% ethanol, followed by de-ionized distilled water, and mounted on glass slides. Samples were placed on a trans-illuminator (long wavelength, ≧350 nm) and photographed.

Structure (SMILES) | labeling of brain or nerve tissue versus background autofluorescence (myelin) | Emission max [1] [nm] | Excitation max [1] [nm] | blood-brain barrier penetration ([2]; peripheral administration, uptake in cortex and cerebellum) | SUV / radioactive signal of sciatic nerve over time ([2]; tail vein injection, 2-60 min) | SUV of cortex and cerebellum ([2]; tail vein injection, 2 min post-injection) | time for SUV of multiple tissues to decline to baseline levels ([2]; tail vein injection, tissues such as blood and muscle) [min] | labeling of rat brain tissue section (myelin; 25 uM in 50% ethanol, 10 min, cerebellum, PI counterstain, FIG. 1) | labeling of sectioned peripheral nerves (myelin; cross-sections of peripheral nerves) | fluorescence of explanted sciatic nerve [3]
N#CC(C#N)=Cc1ccc(-c2oc3ccccc3c2CO)o1 [compound A] | did not label brain or nerve tissue above background autofluorescence | 550 | 435 | – | – | – | – | – | – | –
CC(=O)OCc1c(-c2ccc(C=C(C#N)C#N)o2)oc2ccccc12 [compound B, 2-(2-diaminooxyethenyl-5-furanyl)-3-ethylacetyl benzofuran] | did not label brain or nerve tissue above background autofluorescence | 535 | 435 | – | – | – | – | – | – | –
O=Cc1ccc(-c2oc3ccccc3c2CO)o1 [Formula I, 2-(2-furanyl-5-formyl)-3-hydroxymethyl benzofuran] | – | 470 | 380 | does not readily penetrate the blood-brain barrier | remained elevated throughout the sampling period | < 0.2 | ≤ 60 | specific labeling of myelin | distinctive rings of labeling indicative of cross sections of myelin ensheathing unlabeled axon shafts | distinctive fluorescence over background
